Structures are written as SMILES.

One test has as its system 3T3 L1 cells. The test is described as follows: Live cell staining with rhenium molecular probes. It counts as cell-based. Particulars: live samples, 10-20 μM probe. As to the method:
Probes were dissolved in DMSO to obtain a stock solution with a concentration of 10 mM. Stock solutions were stored at room temperature in a dark place. Working solutions were prepared only at the time of use as the probe has reduced solubility in aqueous solutions. A Working solution was a dilution 1/1000 to 1/500 of the stock in DMSO to PBS or cell medium, and as such the percentage of DMSO used in actual cell experiments was less than 1%.
For tissues, the tissues were isolated in PBS (or other physiological media) and mounted on a coverslip. For cells, these were grown as per normal practice on coverslips.
The media was removed media and replaced with 10-20 μM solution of molecular probes in PBS (or appropriate physiological media/cell media) at a dilution of stock solution from 1/1000-1/500, for 15-30 minutes at physiologically appropriate temperature (37° C. for cell culture or 25° C. for insect larvae). […] If foetal calf serum is necessary for cell health, an increased incubation time may be necessary to obtain adequate staining.
The samples were washed for one minute in PBS. […]
Micrographs of 3T3 L1, 453 cells and CHOK1 cells and Drosophila fat body tissue stained with rhenium molecular probes, PhenCyan top, PhenPyridyl bottom are shown in FIG. 10. […] Left: confocal images; Right: fluorescence microscopy images.

A short description of test [1]: Rhenium molecular probe-lipid overlay (dot blot). It counts as binding. Also on record: key to interaction with Ceramide (dot blot): ✓ indicates a positive interaction; x indicates no interaction. As to the method:
(§1) The experimental protocol probe-lipid overlay was as follows: 50 μM of each lipids was loaded on to PVDF membranes (Perkin Elmer, USA), which were then incubated with molecular probes. PhenCyano and PhenPyridyl were assessed against eleven lipids including; sphingomyelin (Cat # S0756, Sigma Aldrich, USA), sphingosine (Cat # S7049; Sigma Aldrich, USA), L-phosphatidylethanolamine (Cat # P7943, Sigma Aldrich, USA), monosialodanglioside (GM1; Cat # G7641, Sigma Aldrich, USA), oleoly-L-?-lysophosphatidic acid (Cat # L7260, Sigma Aldrich, USA), palmitic acid (Cat # P5917, Sigma Aldrich, USA), sphingomyelin (Cat # S0756, Sigma Aldrich, USA), sphingosine (Cat # S7049; Sigma Aldrich, USA), L-?-phosphatidylethanolamine (Cat # P7943, Sigma Aldrich, USA), monosialodanglioside (GM1; Cat # G7641, Sigma Aldrich, USA), progesterone (Cat #102722, MP Biomedical, USA), ceramide (Cat # C2137; Sigma Aldrich, USA), triacylglycerol mix C2-C10 (Cat #17810, Sigma Aldrich, USA) and cholesteryl acetate (Cat #151114; Sigma Aldrich, USA).
(§2) Lipids were dissolved in ethanol, methanol or isopropanol for loading depending on solubility. Following lipid loading, membranes were left to dry for 20-30 minutes, then they were washed for 10 minutes in cold 10% ethanol, before they were incubated with 10 μM solution of each Rhenium molecular probe in cold 10% ethanol for one hour. Membranes were than washed four times for 10 minutes in cold 10% ethanol prior to imaging. Imaging was performed on an Image Quant Las 4000 (GE, Sweden) luminescent image analyser, with the Rhenium molecular probe being detected by excitation at 460 nm using an epi-blue light source, and detected using an 575 nm ethidium bromide filter.

A short description of test [2]: Rhenium molecular probe-lipid overlay (dot blot). It counts as binding. Particulars: FIG. 7 / FIG. 8. As to the method: as §1
All other molecular probes were assessed against a panel of six lipids including; sphingomyelin (Cat # S0756, Sigma Aldrich, USA), sphingosine (Cat # S7049; Sigma Aldrich, USA), L-?-phosphatidylethanolamine (Cat # P7943, Sigma Aldrich, USA), monosialodanglioside (GM1; Cat # G7641, Sigma Aldrich, USA), sphingomyelin (Cat # S0756, Sigma Aldrich, USA), sphingosine (Cat # S7049; Sigma Aldrich, USA), L-?-phosphatidylethanolamine (Cat # P7943, Sigma Aldrich, USA), monosialodanglioside (GM1; Cat # G7641, Sigma Aldrich, USA) and triacylglycerol mix C2-C10 (Cat #17810, Sigma Aldrich, USA).
as §2

The target of another test is albumin (Homo sapiens, UniProt P02768). Description: Rhenium probe overlay, Example 5. It counts as binding. Particulars: neither ... nor ... reacted with the probe. As for the experimental part: To determine the binding properties of tricarbonyl-(4-cyanophenyltretrazolato)-phenanthroline-rhenium (I) (Rhenium probe) to various lipids, Rhenium probe-lipid overlay was performed using either lipids spotted onto PDVF membranes (Perkin Elmer, USA) or lipid MicroStrips (Echelon Biosciences Inc., Salt Lake City, Utah). The membranes contained at least 100 pmoles of each lipid in individual spots (supplementary table 1) or 10 μL (each in PBS) of 10% (v/v) glycerol, 1% (v/v) CHAPS, 1% (w/v) SDS, 1% (v/v) Tween20, Ecydsone (10 μg/100 μL), cholesterol (10 μg/100 μL), progesterone (10 μg/100 μL), PBS, or 1% (v/v) ethanol; and were incubated with 0.5 mM of Rhenium probe in 1% (w/v) BSA/PBS for 40 minutes and then washed four times for 10 minutes in PBS. Imaging was performed on an Image Quant Las 4000 (GE, Sweden) luminescent image analyser, with the Rhenium probe being detected by excitation at 460 nm using an epi-blue light source, and detected using an 605 nm ethidium bromide filter.
albumin, sequence (P02768 25-609, species assumed): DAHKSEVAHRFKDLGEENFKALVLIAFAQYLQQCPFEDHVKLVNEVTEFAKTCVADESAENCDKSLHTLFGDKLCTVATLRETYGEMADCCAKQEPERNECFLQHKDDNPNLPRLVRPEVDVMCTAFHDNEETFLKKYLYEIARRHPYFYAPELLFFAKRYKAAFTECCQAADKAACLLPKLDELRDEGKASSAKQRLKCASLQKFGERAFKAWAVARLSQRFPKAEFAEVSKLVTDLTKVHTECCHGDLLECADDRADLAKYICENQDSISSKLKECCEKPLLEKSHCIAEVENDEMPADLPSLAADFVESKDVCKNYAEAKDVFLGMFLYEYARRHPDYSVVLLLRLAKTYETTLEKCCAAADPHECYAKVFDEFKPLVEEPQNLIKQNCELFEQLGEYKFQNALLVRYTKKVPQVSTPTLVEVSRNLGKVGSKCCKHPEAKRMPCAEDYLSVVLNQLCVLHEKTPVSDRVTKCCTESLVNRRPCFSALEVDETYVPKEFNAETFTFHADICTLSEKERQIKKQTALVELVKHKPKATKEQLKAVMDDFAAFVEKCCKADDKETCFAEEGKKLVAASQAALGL

Test [3] is described as follows: Rhenium molecular probe-lipid overlay (dot blot). It counts as binding. The conditions noted are these: FIG. 7. As to the method:
as §1
Lipids were dissolved in ethanol, methanol or isopropanol for loading depending on solubility. […] Imaging was performed on an Image Quant Las 4000 (GE, Sweden) luminescent image analyser, with the Rhenium molecular probe being detected by excitation at 460 nm using an epi-blue light source, and detected using an 575 nm ethidium bromide filter.

Test [4] is described as follows: Rhenium molecular probe-lipid overlay (dot blot). The class given is binding. Particulars: FIG. 7. As to the method: as §1, §2

On to `N#Cc1ccc(-c2nn[n]([Re](=[C]=O)(=[C]=O)=[C]=O)n2)cc1.c1cnc2c(c1)ccc1cccnc12` [PhenCyano, Triscarbonyl phenanthroline (4-cyanophenyltetrazolato)Rhenium(I)], for which the “staining pattern in 3T3 L1 cells” value with 3T3 L1 cells is “distribution consistent with lipid droplet staining”. The “interaction with Ceramide (dot blot)” value in test [1] (10 μM probe, 50 μM lipid on PVDF membrane) is on record as “x”. Moreover, the “interaction with ceramide, in words” value in test [1] (FIG. 7) was “no interaction detected”. Also, in test [2], the “interaction with triglycerides, in words” value is on record as “no interaction detected”. Also, the reactivity with albumin entry on albumin is “Neither”. In test [3], the “interaction with fatty acid (palmitic acid), in words” value is “no interaction detected”. The “interaction with cholesterol ester (cholesteryl acetate), in words” value in test [4] is given as “no interaction detected”.
